Experimental data taken from patent US20250109127A1, “METHODS OF USE OF PHENOXYPROPYLAMINE COMPOUNDS TO TREAT DEPRESSION” (Minerva Neurosciences, Inc., priority 2013, published 2025).
“Also recorded” adds a separate entry of the source. Structures can show the parent of a compound that is named as a salt.

Key:
subjective sleep = test: Leeds Sleep Evaluation Questionnaire (LSEQ); assay type: in vivo, human; settings: SON-117 1 mg; after single administration, sustained up to day 16
[1] = test system: animals exposed to chronic mild stress; test: Novel object recognition test after CMS and treatment withdrawal; assay type: in vivo, rat
Text: (§1) After completion of the administration and withdrawal period, all control and stressed animals were placed in an open field (100 cm in diameter, 35 cm high) and allowed to explore two identical objects (cylinder-shaped object with walls painted white, 7 cm in diameter, 11 cm high) for the time required to complete 15 s of exploration of either object. For the retention trial conducted one hour later, one of the objects presented previously was replaced with a novel object (prism-shaped object with walls painted black, 5 cm wide, 14 cm high). Rats were returned to the open field for 5 min and the duration of exploration (i.e. sitting in close proximity to the objects, sniffing or touching them) of each object was measured separately by a trained observer. The data were calculated according to the following formula: [time of novel object exploration divided by time of novel plus familiar object exploration multiplied by 100]. The CMS and NOR data were analyzed by multiple analyses of variance with three between-subjects factors (stress/control, drug treatments and intakes in successive sucrose tests). The Fisher's LSD test was used for the post-hoc comparisons of means.

5-HT1A, 5-HTT, 5-HT2A = test: Electrophysiological studies; settings: first 5-HT1A is presynaptic
sleep EEG parameters = test: Polysomnography / sleep EEG study; assay type: in vivo, human
Experimental: In this study, certain pharmacodynamic sleep parameters predictive of antidepressant activity were monitored and measured. […] Three doses of SON-117 were tested (1 mg, 3 mg, 7.5 mg). […] In an embodiment, SON-117 affected sleep. In an embodiment, SON-117 affected REM sleep.
[…] subjects were tested in a sleep study, where 23 subjects were dosed with SON-117 in amounts of 1 mg up to 7.5 mg; 12 were given a placebo; and 8 were given escitalopram at a dose of 20 mg. Sleep was recorded in individual sound-attenuated and comfortably furnished bedrooms. During bedtime hours subjects were recumbent and the lights are turned off. The polysomnographic montage consisted of 4 EEG channels (C3A2, O1A2, C4A1, and O2A1), bilateral electro-oculograms, and 2 submental electromyograms. The different sleep parameters were derived with the Hypnos software from the visual scoring of the recordings at 30 sec epochs according to Rechtschaffen and Kales (1968) rules. Sleep continuity parameters comprise both sleep initiation and sleep maintenance variables. Sleep architecture parameters, which include REM sleep parameters, comprise stages distribution variables documenting duration and proportion of the different sleep stages and sleep profile variables that provide an outline on the time course of the different sleep stages during the recording period. All night sleep EEG spectral analysis was carried out on the C3-A2 derivation by means a fast Fourrier transform algorithm. Epoch length was 2 seconds at a sampling rate of 256 Hz and truncating error was reduced by applying a Hanning window. Sleep visual scores of each 30-second epoch was synchronised with power density values in order to allow the analysis of power density within in specific period of time such as REM and non REM sleep.

[2] = Pharmacokinetic study, plasma concentration on day 1 and day 14; assay type: in vivo; settings: day 1 and day 14 after dosing with SON-117
Text: were examined in pharmacokinetic studies.
FIG. 34 illustrates the plasma concentration of SON-117 as a function of time on day 1 after dosing with SON-117. FIG. 35 illustrates the plasma concentration of SON-117 as a function of time on day 14 after dosing with SON˜117.
FIG. 36 illustrates the plasma concentration of the M1 metabolite of SON-117 as a function of time on day 1 after dosing with SON-117. FIG. 37 illustrates the plasma concentration of the M1 metabolite of SON-117 as a function of time on day 14 after dosing with SON-117.

5-HT2A = 5-HT2A (Homo sapiens, UniProt P28223); test: Receptor binding, 5-HT2A
5-HTT = 5-HTT (Homo sapiens, UniProt P31645); test: Receptor binding, 5-HTT
[3] = test system: animals exposed to chronic mild stress; test: Chronic mild stress (CMS) model, consumption of 1% sucrose solution; assay type: in vivo, rat; settings: for effect on sucrose intake one week after cessation of treatments: stressed animals
Experimental: Male Wistar rats (Charles River, Germany) were brought into the laboratory one month before the start of the experiment. Except as described below, the animals were singly housed with food and water freely available, and were maintained on a 12-h light/dark cycle, in a constant temperature (22±2° C.) and humidity (50±5%) conditions.
After a period of 2 weeks of adaptation to laboratory and housing conditions, the animals were first trained to consume a 1% sucrose solution; training consisted of nine 1 h baseline tests in which sucrose was presented, in the home cage, following 14 h food and water deprivation; the sucrose intake was measured by weighing pre-weighed bottles containing the sucrose solution, at the end of the test. Subsequently, the sucrose consumption was monitored, under similar conditions, at weekly intervals throughout the whole experiment.
On the basis of their sucrose intakes in the final baseline test, the animals were divided into two matched groups. One group of animals was subjected to the chronic mild stress procedure for a period of 8 consecutive weeks. Each week of stress regime consisted of: two periods of food or water deprivation, two periods of 45 degree cage tilt, two periods of intermittent illumination (lights on and off every 2 h), two periods of soiled cage (250 ml water in sawdust bedding), one period of paired housing, two periods of low intensity stroboscopic illumination (150 flashes/min), and three periods of no stress. All stressors were 10-14 h of duration and were applied individually and continuously, day and night. Control animals were housed in separate rooms and had no contact with the stressed animals. They were deprived of food and water for the 14 h preceding each sucrose test, but otherwise food and water were freely available in the home cage.
On the basis of their sucrose intakes following initial 2 weeks of stress, both the stressed and the control groups were each divided further into matched subgroups (n=8), and for subsequent five weeks they received once daily intraperitoneal injections of vehicle (0.5% hydroxypropylmethylcellulose, 1 ml/kg), SON-117 (0.001, 0.01, 0.1 and 1 mg/kg) or imipramine (10 mg/kg) as the reference treatment. The drugs were administered at approx. 10:00 AM and the weekly sucrose tests were carried out 24 h following the last drug injections. After five weeks all treatments were terminated and one additional sucrose test was carried out after one week of withdrawal. Stress was continued throughout the period of treatment and withdrawal.
as §1

5-HT2A, sequence (P28223 whole entry): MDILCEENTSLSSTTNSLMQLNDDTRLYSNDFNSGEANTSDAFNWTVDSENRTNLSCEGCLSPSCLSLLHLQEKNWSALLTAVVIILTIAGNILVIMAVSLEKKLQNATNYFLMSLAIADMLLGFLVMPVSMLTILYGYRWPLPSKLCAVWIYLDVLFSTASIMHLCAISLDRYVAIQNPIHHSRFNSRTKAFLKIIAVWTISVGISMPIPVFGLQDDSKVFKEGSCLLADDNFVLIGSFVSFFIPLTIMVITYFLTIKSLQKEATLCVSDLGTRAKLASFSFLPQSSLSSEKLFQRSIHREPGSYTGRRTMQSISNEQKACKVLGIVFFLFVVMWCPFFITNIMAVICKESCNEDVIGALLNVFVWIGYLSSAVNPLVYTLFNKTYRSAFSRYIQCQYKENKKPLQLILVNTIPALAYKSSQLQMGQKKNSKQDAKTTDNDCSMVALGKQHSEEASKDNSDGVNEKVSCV
5-HTT, sequence (P31645 whole entry, species assumed): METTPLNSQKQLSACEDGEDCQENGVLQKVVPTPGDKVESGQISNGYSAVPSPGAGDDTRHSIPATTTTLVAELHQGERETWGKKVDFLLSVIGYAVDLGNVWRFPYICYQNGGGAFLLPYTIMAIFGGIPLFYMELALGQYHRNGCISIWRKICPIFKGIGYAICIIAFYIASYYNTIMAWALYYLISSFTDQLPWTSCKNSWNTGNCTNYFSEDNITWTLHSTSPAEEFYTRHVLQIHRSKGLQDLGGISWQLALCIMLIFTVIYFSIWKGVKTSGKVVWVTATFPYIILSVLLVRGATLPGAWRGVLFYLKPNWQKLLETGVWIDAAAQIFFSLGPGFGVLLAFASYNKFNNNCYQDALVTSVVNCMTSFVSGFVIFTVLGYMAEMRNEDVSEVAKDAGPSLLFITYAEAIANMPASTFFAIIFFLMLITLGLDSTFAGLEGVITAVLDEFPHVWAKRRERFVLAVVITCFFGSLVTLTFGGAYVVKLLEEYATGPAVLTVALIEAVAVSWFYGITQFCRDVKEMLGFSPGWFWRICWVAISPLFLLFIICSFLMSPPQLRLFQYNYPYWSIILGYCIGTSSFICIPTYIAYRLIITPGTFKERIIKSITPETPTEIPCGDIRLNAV

Cc1nnc(-c2cc3c(OC[C@@H](O)CN4CCC(c5ccc(Cl)c(Cl)c5)CC4)cccc3o2)o1 [SON-117, (S)-1-(4-(3,4-dichlorophenyl)piperidino)-3-(2-(5-methyl-1,3,4-oxadiazol-2-yl)benzo(b)furan-4-yloxy)-2-propanol hydrochloride]
LSEQ getting to sleep (subjective sleep): easier | LSEQ quality of sleep (subjective sleep): improved | recognition index in stressed animals ([1]; SON-117 0.001, 0.01 and 0.1 mg/kg, one week after withdrawal): restored | effect against the CMS-induced deficit in the novel object recognition ([1]; SON-117 1 mg/kg, stressed animals): ineffective | recognition index in control animals ([1]; SON-117 all doses (0.001-1 mg/kg IP), one week after withdrawal): no significant effect | order of effects in electrophysiological studies (5-HT1A, 5-HTT, 5-HT2A): 5-HT1A>5-HTT>5-HT2A>postsynaptic 5-HT1A | effect of discontinuation of dosing on sleep EEG parameters, including REM sleep (sleep EEG parameters; SON-117): no evidence | slow wave sleep (SWS) (sleep EEG parameters; SON-117 1 mg, day 1 and day 14, second third of the night, hydrochloride): could increase; also recorded: increased | REM sleep, REM density/activity (sleep EEG parameters; SON-117 repeated dosing, two highest dosages (3 mg, 7.5 mg), particularly 7.5 mg, hydrochloride): could have REM sleep promoting effect; also recorded: increased | sleep continuity and sleep architecture parameters (sleep EEG parameters; SON-117 three doses tested (1, 3, 7.5 mg)): largely not influenced | AUC, dependence on dose [2]: dose-proportional increase | Cmax, dependence on dose [2]: dose-proportional increase | affinity, 5-HT2A receptor binding (5-HT2A): high affinity | affinity, 5-HTT binding (5-HTT): high affinity | dose at which rapid-onset normalization of sucrose intake was observed (as low as) ([3]; CMS model): 1 µg/kg | effect on sucrose intake one week after cessation of treatments ([3]; SON-117 0.001 mg/kg): maintained | time at which increase of sucrose consumption in stressed animals reached significance vs Week 0 ([3]; SON-117 0.001 and 0.01 mg/kg IP (only these doses significant vs Week 0)): first week | onset of action: enhancement of sucrose intakes reached statistical significance ([3]; SON-117 0.001 and 1.0 mg/kg): first week | effect on sucrose intake one week after cessation of treatments ([3]; SON-117 1 mg/kg): abolished | effectiveness in the CMS model ([3]; SON-117 0.01 and 0.1 mg/kg): less effective than imipramine | magnitude of action in the CMS model ([3]; SON-117 most active doses (0.001 and 1.0 mg/kg)): comparable to that of imipramine | sucrose intake in control animals, compared to vehicle ([3]; once daily IP for five weeks, imipramine 10 mg/kg, SON-117 all doses (0.001, 0.01, 0.1 and 1 mg/kg)): no significant effect | sucrose consumption in stressed animals, compared to vehicle ([3]; once daily IP for five weeks, imipramine 10 mg/kg, SON-117 all four doses (0.001-1 mg/kg), hydrochloride): significant effects; also recorded: enhanced
